# Target: T1, Gonadotropin-releasing hormone receptor (Rattus norvegicus, UniProt P30969)
# T1 sequence (P30969 whole entry): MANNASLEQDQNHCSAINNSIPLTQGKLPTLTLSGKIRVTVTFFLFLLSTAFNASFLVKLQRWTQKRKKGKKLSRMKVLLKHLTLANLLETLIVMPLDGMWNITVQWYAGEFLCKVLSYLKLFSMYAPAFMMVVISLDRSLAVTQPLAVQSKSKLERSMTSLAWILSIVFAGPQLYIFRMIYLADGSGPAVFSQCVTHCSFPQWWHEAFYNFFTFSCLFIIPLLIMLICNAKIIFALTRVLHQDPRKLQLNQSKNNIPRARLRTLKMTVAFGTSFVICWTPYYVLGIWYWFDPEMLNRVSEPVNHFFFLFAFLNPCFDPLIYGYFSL
# Experiment: Concentration of the peptide which displaces 50% of 125 I-[D-Lys6] gonadotropin-releasing hormone bound to rat pituitary membranes
# Type: cell membranes, Membrane
row,Structure (SMILES),IC50 [nM]
1,CC(=O)N[C@H](Cc1ccc2ccccc2c1)C(=O)N[C@H](Cc1ccc(Cl)cc1)C(=O)N[C@H](Cc1ccccn1)C(=O)N[C@H](CCCN=C(N)N)C(=O)N[C@@H](CCCNC(N)=O)C(=O)N1CCC[C@H]1C(=O)N[C@H](C)C(N)=O,72
2,CC(=O)N[C@H](Cc1ccc2ccccc2c1)C(=O)N[C@H](Cc1ccc(Cl)cc1)C(=O)N[C@H](Cc1ccccn1)C(=O)N[C@@H](CC(C)C)C(=O)N[C@@H](CCCN=C(N)N)C(=O)N1CCC[C@H]1C(=O)N[C@H](C)C(N)=O,81
3,CC(=O)N[C@H](Cc1ccc2ccccc2c1)C(=O)N[C@H](Cc1ccc(Cl)cc1)C(=O)N[C@H](Cc1ccccn1)C(=O)N[C@H](C)C(=O)N[C@@H](CCCCNNC(=O)c1cccnc1)C(=O)N1CCC[C@H]1C(=O)N[C@H](C)C(N)=O,14
4,CC(=O)N[C@H](Cc1ccc2ccccc2c1)C(=O)N[C@H](Cc1ccc(Cl)cc1)C(=O)N[C@H](Cc1ccccn1)C(=O)Nc1ccccc1C(=O)N[C@@H](CCCNC(=N)N)C(=O)N1CCC[C@H]1C(=O)N[C@H](C)C(N)=O,140
5,CC(=O)N[C@H](Cc1ccc2ccccc2c1)C(=O)N[C@H](Cc1ccc(Cl)cc1)C(=O)N[C@H](Cc1ccccn1)C(=O)N[C@H](C)C(=O)N1CCC[C@H]1C(=O)N[C@H](C)C(N)=O,1500
6,CC(=O)N[C@H](Cc1ccc2ccccc2c1)C(=O)N[C@H](Cc1ccc(Cl)cc1)C(=O)N[C@H](Cc1ccccn1)C(=O)NCC(=O)N1CCC[C@H]1C(=O)N[C@H](C)C(N)=O,45
7,CC(=O)N[C@H](Cc1ccc2ccccc2c1)C(=O)N[C@H](Cc1ccc(Cl)cc1)C(=O)N[C@H](Cc1ccccn1)C(=O)N[C@@H](CCCN=C(N)N)C(=O)N1CCC[C@H]1C(=O)N[C@H](C)C(N)=O,130
8,CC(=O)N[C@H](Cc1ccc2ccccc2c1)C(=O)N[C@H](Cc1ccc(Cl)cc1)C(=O)N[C@H](Cc1ccccn1)C(=O)N[C@@H](C)C(=O)N[C@@H](CCCNC(=N)N)C(=O)N1CCC[C@H]1C(=O)N[C@H](C)C(N)=O,28
9,CC(=O)N[C@H](Cc1ccc2ccccc2c1)C(=O)N[C@H](Cc1ccccc1)C(=O)N[C@H](Cc1ccccc1)C(=O)NCC(=O)N[C@@H](CCCN=C(N)N)C(=O)N1CCC[C@H]1C(=O)N[C@H](C)C(N)=O,28
10,CC(=O)N[C@H](Cc1ccc2ccccc2c1)C(=O)N[C@H](Cc1ccc(Cl)cc1)C(=O)N[C@H](Cc1ccccn1)C(=O)NC1(C(=O)N[C@@H](CCCN=C(N)N)C(=O)N2CCC[C@H]2C(=O)N[C@H](C)C(N)=O)CCC1,42
11,CC(=O)N[C@H](Cc1ccc2ccccc2c1)C(=O)N[C@H](Cc1ccc(Cl)cc1)C(=O)N[C@H](Cc1ccccn1)C(=O)N[C@H](C)C(=O)N[C@@H](CCCCNC(C)C)C(=O)N1CCC[C@H]1C(=O)N[C@H](C)C(N)=O,130
12,CC(=O)N[C@H](Cc1ccc2ccccc2c1)C(=O)N[C@H](Cc1ccc(Cl)cc1)C(=O)N[C@H](Cc1cccnc1)C(=O)N1CCC[C@H]1C(=O)N[C@@H](CCCN=C(N)N)C(=O)N1CCC[C@H]1C(=O)N[C@H](C)C(N)=O,110
13,CC(=O)N[C@H](Cc1c[nH]c2ccccc12)C(=O)N[C@H](Cc1ccccc1)C(=O)N[C@H](Cc1ccccc1)C(=O)NCC(=O)N[C@@H](CCCN=C(N)N)C(=O)N1CCC[C@H]1C(=O)N[C@H](C)C(N)=O,450
14,CC(=O)N[C@H](Cc1ccc2ccccc2c1)C(=O)N[C@H](Cc1ccc(Cl)cc1)C(=O)N[C@H](Cc1ccccn1)C(=O)N(C)CC(=O)N[C@@H](CCCNC(=N)N)C(=O)N1CCC[C@H]1C(=O)N[C@H](C)C(N)=O,31
15,CC(=O)N[C@H](Cc1ccc2ccccc2c1)C(=O)N[C@H](Cc1ccc(Cl)cc1)C(=O)N[C@H](Cc1ccccn1)C(=O)N[C@H](CC(C)C)C(=O)N[C@@H](CCCNC(=N)N)C(=O)N1CCC[C@H]1C(=O)N[C@H](C)C(N)=O,74
16,C[C@@H](NC(=O)[C@@H]1CCCN1C(=O)[C@H](CCCN=C(N)N)NC(=O)CNC(=O)[C@@H](Cc1ccccc1)NC(=O)[C@@H](Cc1ccccc1)NC(=O)[C@H](N)Cc1ccc2ccccc2c1)C(N)=O,280
17,CC(=O)N[C@H](Cc1ccc2ccccc2c1)C(=O)N[C@H](Cc1ccc(Cl)cc1)C(=O)N[C@H](Cc1ccccn1)C(=O)N[C@H](CCCNC(=N)N)C(=O)N1CCC[C@H]1C(=O)N[C@H](C)C(N)=O,70
18,CC(=O)N[C@H](Cc1ccc2ccccc2c1)C(=O)N[C@H](Cc1ccc(Cl)cc1)C(=O)N[C@H](Cc1ccccn1)C(=O)N[C@H](C)C(=O)N[C@@H](CCCCN)C(=O)N1CCC[C@H]1C(=O)N[C@H](C)C(N)=O,20
19,CC(=O)N[C@H](Cc1ccc2ccccc2c1)C(=O)N[C@H](Cc1ccc(Cl)cc1)C(=O)N[C@H](Cc1ccccn1)C(=O)NCC(=O)N[C@@H](CCCN=C(N)N)C(=O)N1CCC[C@H]1C(=O)N[C@H](C)C(N)=O,7
20,CC(=O)N[C@H](Cc1ccc2ccccc2c1)C(=O)N[C@H](Cc1ccc(Cl)cc1)C(=O)N[C@H](Cc1ccccn1)C(=O)NCC(=O)N[C@H](CCCNC(=N)N)C(=O)N1CCC[C@H]1C(=O)N[C@H](C)C(N)=O,16

# The remaining lines, values ahead:
row,IC50 [nM],Structure (SMILES)
1,88,CCCC[C@H](NC(=O)[C@@H](C)NC(=O)[C@@H](Cc1ccccn1)NC(=O)[C@@H](Cc1ccc(Cl)cc1)NC(=O)[C@@H](Cc1ccc2ccccc2c1)NC(C)=O)C(=O)N1CCC[C@H]1C(=O)N[C@H](C)C(N)=O
2,23,CC(=O)N[C@H](Cc1ccc2ccccc2c1)C(=O)N[C@H](Cc1ccc(Cl)cc1)C(=O)N[C@H](Cc1ccccn1)C(=O)N[C@H](C)C(=O)N[C@@H](CCCNC(N)=O)C(=O)N1CCC[C@H]1C(=O)N[C@H](C)C(N)=O
3,25,CC(=O)N[C@@H](Cc1ccc2ccccc2c1)C(=O)N[C@H](Cc1ccc(Cl)cc1)C(=O)N[C@H](Cc1ccccn1)C(=O)N[C@@H](Cc1ccc(O)cc1)C(=O)N[C@H](CCCN=C(N)N)C(=O)N1CCC[C@@H]1C(=O)N[C@@H](C)C(N)=O
4,230,CC(=O)N[C@H](Cc1ccccc1)C(=O)N[C@H](Cc1ccccc1)C(=O)N[C@H](Cc1ccccc1)C(=O)NCC(=O)N[C@@H](CCCNC(=N)N)C(=O)N1CCC[C@H]1C(=O)N[C@H](C)C(N)=O
5,38,CC(=O)N[C@H](Cc1ccc2ccccc2c1)C(=O)N[C@H](Cc1ccc(Cl)cc1)C(=O)N[C@H](Cc1ccccn1)C(=O)NCCC(=O)N[C@@H](CCCNC(=N)N)C(=O)N1CCC[C@H]1C(=O)N[C@H](C)C(N)=O
6,17,CC(=O)N[C@H](Cc1ccc2ccccc2c1)C(=O)N[C@H](Cc1ccc(Cl)cc1)C(=O)N[C@H](Cc1ccccn1)C(=O)N[C@H](C)C(=O)N[C@@H](CCCNC(=N)N)C(=O)N1CCC[C@H]1C(=O)N[C@H](C)C(N)=O
7,550,CC(=O)N[C@@H](Cc1ccc2ccccc2c1)C(=O)N[C@H](Cc1ccc(Cl)cc1)C(=O)N[C@H](Cc1ccccn1)C(=O)N[C@H](CCCCN)C(=O)N1CCC[C@@H]1C(=O)N[C@@H](C)C(N)=O
8,370,CC(=O)N[C@H](Cc1cccc2ccccc12)C(=O)N[C@H](Cc1ccccc1)C(=O)N[C@H](Cc1ccccc1)C(=O)NCC(=O)N[C@@H](CCCNC(=N)N)C(=O)N1CCC[C@H]1C(=O)N[C@H](C)C(N)=O
9,2200,C[C@@H](NC(=O)[C@@H]1CCCN1C(=O)[C@H](CCCNC(=N)N)NC(=O)CNC(=O)[C@@H](Cc1ccccc1)NC(=O)[C@@H](Cc1ccccc1)NC(=O)[C@@H](Cc1ccc2ccccc2c1)NC(=O)OCC1c2ccccc2-c2ccccc21)C(N)=O
